Measured values published in ChEMBL document CHEMBL5727087, “Inhibitors of lysine gingipain” (2018).
pIC50: −log10 of the molar value.

Test: Inhibition Assay: The specific assay conditions were as follows. Buffer: pH=7.5, 100 mM Tris-HCl, 75 mM NaCl, 2.5 mM CaCl2, 10 mM cysteine, 1% DMSO after all additions. Protein: 0.1 nM Kgp, isolated from culture of Porphyromonas gingivalis, as described in Pike et al. J. Biol. Chem. 1994, 269(1), 406, and Potempa and Nguyen. Current Protocols in Protein Scienc. 2007, 21.20.1-21.20.27. Fluorogenic substrate: 10 uM Z-His-Glu-Lys-MCA. Time=90 minutes. Temperature=37° C. Each compound: 10 concentrations, starting at either 100 uM or 100 nM, with lower concentrations generated by serial 3-fold dilutions. By testing a range of concentrations for each compound, the concentration required to inhibit the activity of lysine gingipain by 50% (the “IC50”) was determined. Under the described assay conditions, signal-to-noise was excellent, and Z factor was greater than 0.6.

## NCCCC[C@H](NC(=O)C1CCCC1)C(=O)COc1c(F)c(F)cc(F)c1F
  pIC50: > 9.00
